Earlier results as cited in patent publication US20070190114A1, “Antioxidant health lozenges” (priority 2006, published 2007).

Legend:
[1] = tested on: alveolar macrophages; details: alveolar macrophages in smokers
[2] = daily dose of 600 mg
[3] = tested on: peripheral lymphocytes; details: peripheral lymphocytes in smokers

## Oc1ccc(C=Cc2cc(O)cc(O)c2)cc1 [resveratrol]
[1]
  basal release of inflammatory cytokine: inhibits basal release of inflammatory cytokine from alveolar macrophages in smokers

## CC(=O)N[C@@H](CS)C(=O)O [N-acetyl cysteine]
[2]
  cancer chemopreventive effect: effective cancer chemopreventive agent

## O=C(O[C@@H]1Cc2c(O)cc(O)cc2O[C@@H]1c1cc(O)c(O)c(O)c1)c1cc(O)c(O)c(O)c1 [epigallocatechin gallate]
[3]
  sister-chromatid exchange: stabilize sister-chromatid exchange in peripheral lymphocytes in smokers to a level comparable to non-smokers
